The supplement of paper PMC4862054

Columns and labels:
Assay in all cases: normalised viability (% of control), CellTiter-Blue; higher = more viable cells (about 100 = DMSO control)
Details in all cases: incubation time: 72 h
[1] = system: BT-549
Description: (§1)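 DSRT, CellTiter-Blue viability, 72 h incubation. Signal is normalised to DMSO and benzethonium chloride controls. Value is the normalised response at dose 3.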

[2] = system: CAL-85-1
Description: as §1

[3] = system: Hs578T
Description: as §1

[4] = system: MFM-223
Description: as §1

[5] = system: DU-4475
Description: as §1

[6] = system: HCC1143
Description: as §1

[7] = system: MDA-MB-453
Description: as §1

[8] = system: CAL-51
Description: as §1

[9] = system: HCC1599
Description: as §1

[10] = system: MDA-MB-231
Description: as §1

[11] = system: HDQ-P1
Description: as §1

[12] = system: MDA-MB-468
Description: as §1

[13] = system: CAL-120
Description: as §1

[14] = system: BT-474
Description: as §1

[15] = system: MDA-MB-436
Description: as §1

[16] = system: CAL-148
Description: as §1

[17] = system: SK-BR-3
Description: as §1

[18] = system: HCC1937
Description: as §1

[19] = system: Hs578T; remark: listed apart in the source
In short: (§2)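 Normalised viability is given for a single listed concentration of the series. In 384-well plates, breast cancer cell lines were incubated 72 h with compound, then read with CellTiter-Blue (2 h, 37 °C) at 560/590 nm. Per-plate scaling set vehicle to 100 and a positive kill control to 0, with Z'-factor quality control.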

[20] = system: MFM-223; remark: listed apart in the source
In short: as §2

[21] = system: DU-4475; remark: listed apart in the source
In short: as §2

[22] = system: MDA-MB-453; remark: listed apart in the source
In short: as §2

[23] = system: CAL-51; remark: listed apart in the source
In short: as §2

[24] = system: HDQ-P1; remark: listed apart in the source
In short: as §2

[25] = system: MDA-MB-468; remark: listed apart in the source
In short: as §2

[26] = system: CAL-120; remark: listed apart in the source
In short: as §2

[27] = system: BT-474; remark: listed apart in the source
In short: as §2

[28] = system: CAL-148; remark: listed apart in the source
In short: as §2

[29] = system: SK-BR-3; remark: listed apart in the source
In short: as §2

[30] = system: HCC1937; remark: listed apart in the source
In short: as §2

CC(C)Cn1cnc2c(N)nc3ccccc3c21 [Imiquimod]
Details | normalised viability [%]
[1], 100 nM | 96.1
[2], 10 nM | 95.2
[3], 100 nM | 98.1
[4], 100 nM | 91.2
[5], 10 nM | 93.5
[6], 100 nM | 120
[7], 10 nM | 112
[8], 10 nM | 102
[9], 100 nM | 103
[10], 100 nM | 87.4
[11], 10 nM | 99.5
[12], 100 nM | 106
[13], 100 nM | 98.5
[14], 100 nM | 101
[15], 100 nM | 85.6
[16], 10 nM | 105
[17], 100 nM | 112
[18], 100 nM | 87.1
[19], 10 nM | 105
[19], 1000 nM | 105
[19], 10000 nM | 84.9
[20], 10 nM | 108
[20], 1000 nM | 98.3
[20], 10000 nM | 102
[21], 3 nM | 97
[21], 30 nM | 101
[21], 100 nM | 99
[22], 3 nM | 94.6
[22], 30 nM | 105
[22], 100 nM | 107
[23], 3 nM | 103
[23], 30 nM | 97.9
[23], 100 nM | 98.1
[24], 3 nM | 91.7
[24], 30 nM | 92
[24], 100 nM | 96.6
[25], 10 nM | 102
[25], 1000 nM | 103
[25], 10000 nM | 107
[26], 10 nM | 97.9
[26], 1000 nM | 97.2
[26], 10000 nM | 105
[27], 10 nM | 104
[27], 1000 nM | 115
[27], 10000 nM | 102
[28], 3 nM | 93.1
[28], 30 nM | 102
[28], 100 nM | 98.5
[29], 10 nM | 85
[29], 1000 nM | 91.2
[29], 10000 nM | 115
[30], 10 nM | 86.2
[30], 1000 nM | 82.5
[30], 10000 nM | 88.5

Cn1c(Nc2ccc(C(F)(F)F)cc2)nc2cc(Oc3ccnc(-c4ncc(C(F)(F)F)[nH]4)c3)ccc21 [RAF265]
Details | normalised viability [%]
[1], 10 nM | 84.1
[2], 1 nM | 92
[3], 10 nM | 89.7
[4], 10 nM | 88
[5], 1 nM | 92.1
[6], 10 nM | 77.8
[7], 1 nM | 100
[8], 1 nM | 92.9
[9], 10 nM | 97.2
[10], 10 nM | 100
[11], 1 nM | 109
[12], 10 nM | 104
[13], 10 nM | 82.2
[14], 10 nM | 103
[15], 10 nM | 98.9
[16], 1 nM | 94
[17], 10 nM | 102
[18], 10 nM | 93.2
[19], 1 nM | 97.8
[19], 100 nM | 90.9
[19], 1000 nM | 78.3
[20], 1 nM | 94.9
[20], 100 nM | 74.7
[20], 1000 nM | 43.8
[21], 0.3 nM | 102
[21], 3 nM | 95.6
[21], 10 nM | 116
[22], 0.3 nM | 99.2
[22], 3 nM | 109
[22], 10 nM | 98.3
[23], 0.3 nM | 91.4
[23], 3 nM | 94.2
[23], 10 nM | 99.1
[24], 0.3 nM | 95.3
[24], 3 nM | 94.6
[24], 10 nM | 79.7
[25], 1 nM | 110
[25], 100 nM | 94.2
[25], 1000 nM | 80.1
[26], 1 nM | 88.5
[26], 100 nM | 64.5
[26], 1000 nM | 51.3
[27], 1 nM | 118
[27], 100 nM | 107
[27], 1000 nM | 96.4
[28], 0.3 nM | 89.4
[28], 3 nM | 87.1
[28], 10 nM | 89.2
[29], 1 nM | 96.2
[29], 100 nM | 96.3
[29], 1000 nM | 106
[30], 1 nM | 103
[30], 100 nM | 78.7
[30], 1000 nM | 62
